Assays:
CHO cells [1] = assay: Membrane penetration (peptide internalization) assay of biotinylated synthetic peptides; assay type: cell-based, Chinese Hamster; conditions: for intracellular distribution / staining of internalized peptide: Streptavidin ALEXA or anti-Flag mAb staining; for cells penetrated by peptide: peptide 10 μM added to cells in culture
Description: FIG. 2. Membrane penetration assay in CHO cells. N-terminal biotinylated synthetic peptides hPER1-PTD, Flag-hPER1-PTD, Flag-TAT-PTD (positive control), and Flag-Flag (negative control) were assayed for their ability to penetrate cellular membranes in living CHO cells in culture. The subcellular localization of internalized peptides was determined using a two color staining method, either Streptavidin-Alexa 594 (red) or anti-flag mAb. The third column is an overlay. Confocal microscopy was employed to further confirm intracellular and intranuclear localization. Single section of confocal imaging is shown.
FIG. 3. Alanine scanning of hPER1-PDTs. Biotinylated hPER1-NPDs were synthesized with a single amino acid residue substitution at the indicated position with an alanine and assayed for membrane penetration in CHO cells. Cells were incubated for 10 minutes at 37 C. at a peptide concentration of 10 μM followed by washing, fixation, permeablization, and then detected with labeled Streptavidin Alexa-594 (red, 2 μg/ml) for 15 minutes at the RT. Control peptide was from hPER1 N-terminal amino acids residues 486-500.
Peptides are synthesized by a commercial vendor (Bio Synthesis). For peptides internalization, cells are plated into two-well Lab-Tek coverslips (Nunc Inc.) at a density of 2×10^5 cells/well and cultured overnight. The peptides are dissolved in DMSO diluted to indicated concentration with PBS. The cell monolayers were incubated with the appropriate peptide/PBS solution at 1 μM standard concentration for 10 min at room temperature (RT) unless otherwise specified. For experiments at 4° C., the protocol was the same except that all incubations were performed at 4° C. until the end of the fixation procedure.
The peptides are assayed for their ability to penetrate cellular membranes. Intracellular localization is assayed by direct staining with labeled Streptavidin ALEXA reagents or by indirect staining with anti-Flag mAb followed by the addition of labeled secondary antibodies.

5HT2A receptor = target: T1, 5HT2A receptor (Homo sapiens, UniProt P28223); assay: 5HT2A receptor activation, FLIPR calcium response; assay type: cell-based; conditions: 10 μM, 5HT2A receptor CHO stable cell line
T1 construct: expressed in transfected cells
T1 sequence (P28223 whole entry): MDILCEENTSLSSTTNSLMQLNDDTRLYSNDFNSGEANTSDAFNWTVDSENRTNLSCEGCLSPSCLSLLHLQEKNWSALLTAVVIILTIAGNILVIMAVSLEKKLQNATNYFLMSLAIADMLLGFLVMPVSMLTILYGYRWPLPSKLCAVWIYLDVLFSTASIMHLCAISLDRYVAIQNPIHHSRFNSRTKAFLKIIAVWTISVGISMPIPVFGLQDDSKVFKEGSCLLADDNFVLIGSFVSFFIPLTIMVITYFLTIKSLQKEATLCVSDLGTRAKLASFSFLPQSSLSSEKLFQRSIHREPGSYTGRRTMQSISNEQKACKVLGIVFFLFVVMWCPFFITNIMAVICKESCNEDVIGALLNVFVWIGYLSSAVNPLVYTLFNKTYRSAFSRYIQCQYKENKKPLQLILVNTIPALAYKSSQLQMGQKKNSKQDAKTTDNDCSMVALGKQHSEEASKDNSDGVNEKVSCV
Description: FIG. 4. Activation of serotonin 5HT2A receptor with hPER1-MPP fusion peptide. (A). hPER1-MPP and TAT-PTD peptides were synthesized alone or in fusion with either the first intracellular loop I1 ([…] (SEQ ID NO:10)), or the C-terminal Transmembrane 7 domain. TM7 ([…] (SEQ ID NO:11) derived from the 5HT2A receptor, genebank accession number, M86841). Receptor activities was assayed using standard FLIPR analysis and measuring endogenous and exogenous Ca^+2 levels. Peptide designations are as follows: T (TAT-PTD), P (hPER1-MPP), I1 (intracellular loop 1), T-I1 (TAT-PTD-I1), P-I1 (hPER1-MPP-I1), TM7 (C-terminal domain), TTM7 (TAT-PTD-TM7), PTM7 (hPER1-MPP-TM7), and S (Serotonin).
FIG. 4 (B). Dose response of PTM7 (closed circles) and TTM7 (closed diamonds) peptides. Serotonin (control, open triangle) was used at the maximum receptor stimulatory concentration of 10 μM.
One of the features of MPPs is their ability to cargo proteins and peptides into cells. We were successful in coupling hPER1-MPP to B-galactosidase and in delivering the fusion protein into cells in culture (data not shown), as has been described by Fawells et al., 1994 (Fawell, S., et al., Proc Natl Acad Sci USA. 91, 664-668 (1994)). However, to further extend the functional utility of MPPs, we tested hPER1-MPP in fusion with a physiologically relevant and biologically active peptide. […]

CHO cells [2] = assay: β-galactosidase cargo delivery into cells (X-gal staining); assay type: cell-based, Chinese Hamster; conditions: chemically linked conjugates
Description: (§1) FIG. 6. hPER-PTD cargo's β-Galactosidase into cells: At least one feature of HIV TAT transducing peptide is its ability to cargo proteins into cells and tissues. We therefore sought to determine if hPER1 transducing peptide could cargo beta galactosidase into cells. To perform this experiment, we followed a protocol by Frankel et al. 1989 (19):7397-401, whereby, we chemically linked hPER1-PTD or hPER-PTD R7A to full length β-galactosidase and assayed for the ability of these conjugates and beta-galactosidase protein alone to transduce into CHO cells.
as §1, with “At” for “FIG. 6. hPER-PTD cargo's β-Galactosidase into cells: At”, “al. PNAS” for “al.”, “R7A (with Ala replacing Arg^7)” for “R7A”

## GKKTGKNRKLKSKRVKPRD [hPER2]
CHO cells [1]
  membrane penetrating ability in words (relative to wild-type hPER1-MPP, TAT-PTD or negative control): not all NLSs are PTDs

## GRRERNKMAAAKCRNRRR [C-FOS]
CHO cells [1]
  membrane penetrating ability in words (relative to wild-type hPER1-MPP, TAT-PTD or negative control): not all NLSs are PTDs

## NCCc1c[nH]c2ccc(O)cc12 [serotonin]
5HT2A receptor
  5HT2A receptor signaling, calcium response: receptor signaling is activated

## KTYRSAFSRYIQYKENKKPLQLI [TM7, C-terminal Transmembrane 7 domain peptide of the 5HT2A receptor]
5HT2A receptor
  5HT2A receptor signaling, calcium response: TM7 alone nor any of the other peptides were able to generate a calcium response

## GDPKKKRKV [SV40, reference compound]
CHO cells [1]
  membrane penetrating ability in words (relative to wild-type hPER1-MPP, TAT-PTD or negative control): not all NLSs are PTDs

## GKHRHERGHHRDRRER [Cyclin L ania-6a]
CHO cells [1]
  membrane penetrating ability in words (relative to wild-type hPER1-MPP, TAT-PTD or negative control): not all NLSs are PTDs

## R R H H C R S K A K R S R (RRHHCRSKAKRSR) [hPER1-PTD13]
CHO cells [1]
  membrane penetrating ability in words (relative to wild-type hPER1-MPP, TAT-PTD or negative control): little overall effect on the positive membrane penetrating potential

## GMDYKDDDDKGYGRKKKRRQRRR [Flag-TAT, reference compound]
CHO cells [1]
  intracellular distribution / staining of internalized peptide: diffusely distributed throughout the cytoplasm, but concentrated within subnuclear domains
  cells penetrated by peptide: 100%

## SRRHHCRSKAKRSRHH [hPER1-MPP, N-terminally biotinylated peptide of hPER1 amino acids 830-845]
CHO cells [1]
  membrane penetrating ability in words (relative to wild-type hPER1-MPP, TAT-PTD or negative control): efficiencies similar to the TAT-PTD peptide
  time of internalization: ≤ 5 min
  intracellular distribution / staining of internalized peptide: diffusely distributed throughout the cytoplasm, but concentrated within subnuclear domains
  cells penetrated by peptide: 100%

## β-galactosidase protein: full length β-galactosidase alone
CHO cells [2]
  delivery of β-galactosidase into cells (enzymatic activity, blue color after X-gal): no blue staining reactivity

## GKKKRKLSNRESAKRSR [beta Zip TF]
CHO cells [1]
  membrane penetrating ability in words (relative to wild-type hPER1-MPP, TAT-PTD or negative control): not all NLSs are PTDs

## S R R H H C A S K A K R S R H H (SRRHHCASKAKRSRHH) [R7A]
CHO cells [1]
  membrane penetrating ability in words (relative to wild-type hPER1-MPP, TAT-PTD or negative control): reduced the detectable cytological signal to that observed for the negative control peptides

## GMDYKDDDDKGSRRHHCRSKAKRSHH [Flag-hPER1]
CHO cells [1]
  intracellular distribution / staining of internalized peptide: diffusely distributed throughout the cytoplasm, but concentrated within subnuclear domains
  cells penetrated by peptide: 100%

## GMDYKDDDDKGMDYKDDDDK [Flag, reference compound]
CHO cells [1]
  intracellular distribution / staining of internalized peptide: only barely discernible background staining

— US7754678B2, “Membrane penetrating peptides and uses thereof” (Aventis Pharmaceuticals Inc., priority 2000, dated 2010)
